Results: publication PMC6881481, “Integrative Multi-Kinase Approach for the Identification of Potent Antiplasmodial Hits” (Frontiers in Chemistry, 2019)
Where two headings read alike, the source gives them in different places.

Experiments:
P. falciparum CDPK1 = test system: P. falciparum CDPK1; set-up: method as in ref Crowther et al., 2016; National Center for Biotechnology Information, 2016a; conditions: query of shape-based model, ref Crowther et al., 2016, National Center for Biotechnology Information, 2016a; cited from earlier work
[1] = test system: P. falciparum 3D7 (sensitive) strain, asexual blood stage; assay: Plasmodium growth inhibition by SYBR Green I, 3D7 strain; format: cell-based
Method: (§1) Parasite cultures (3D7 and Dd2 strains) were maintained in O^+ human erythrocytes in RPMI 1640 medium supplemented with 0.05 mg/mL gentamycin, 38.4 mM HEPES, 0.2% sodium bicarbonate, and 10% O^+ human serum as described before (Trager and Jensen, [1976]). To achieve a synchronic culture in the ring stage, two consecutive treatments at 48 h intervals with a 5% solution of D-sorbitol were done (Lambros and Vanderberg, [1979]).
(§2) Synchronized ring-stage (> 90%) infected erythrocytes were dispensed in duplicate into 96-well plates (0.5% parasitemia, 1% hematocrit) and incubated in dose response format with test compounds for 72 h. Chloroquine was used as an antimalarial control and uninfected erythrocytes as negative control. Then, in vitro susceptibility of parasite to tested drug was measured by SYBR Green (Hartwig et al., [2013]). Following incubation, the plates were frozen and thawed, and 100 μL of the culture were transferred to a new black 96-well plate containing 100 μL of lysis buffer (20 mM Tris, 5 mM EDTA, 0.008% wt/vol saponin, 0.08% vol/vol Triton X-100, and 0.4 μL/mL of SYBR Green). After 1 h, the fluorescence was measured at 490 nm excitation and 540 nm emission (CLARIOstar, Labtech BMG). […] The EC50 was calculated by plotting the Log doses vs. Inhibition (expressed as a percentage relative to the control) in Prism 6 (GraphPad Software Inc.). Each test was performed at least three independent experiments.

[2] = test system: P. berghei Ookluc line ookinete formation; assay: Inhibition of P. berghei sexual stage progression (ookinete conversion, nLuc); format: cell-based; conditions: Plasmodium berghei, 24 h at 21°C, mean ± SD
Method: Balb/c mice were infected intraperitoneally with the P. berghei Ookluc line (Calit et al., [2018]). Four to five days after infection, the infected blood was collected by cardiac puncture and 4 μL were seeded to a volume of 80 μL of ookinete medium (Blagborough et al., [2013]), at 21°C, containing 10 μM of compounds or DMSO vehicle control. After 24h incubation at 21°C, the nLuc substrate (Nano-Glo, Promega) was added to each well 1:1 (v:v) and incubated for 5 min at 37°C. The luciferase activity was measured using a plate luminometer SpectraMax i3; Molecular Devices and the % of conversion inhibition were calculated relative to the luciferase activity in the control assays. This assay was approved by the Ethics Committee (protocol number 132/2014-CEUA) of the Institute of Biomedical Sciences—University of São Paulo.

HEPG2 cells = assay: Cytotoxicity assay (MTT reduction), HEPG2 cells; format: cell-based, human; conditions: CC50 HEPG2 / EC50 3D7
Method: (§3) The cytotoxicity was evaluated using two different lineages of mammalian cells: fibroblast-like cell lines derived from monkey kidney tissue (COS7 cells) and human hepatoma cell line (HEPG2). The cells were grown in 75 cm^2 flasks containing DMEM medium supplemented with 10% fetal bovine serum and 0.05 mg/mL gentamicin under a 5% CO2 atmosphere at 37°C. After harvest of cells, 100 μL aliquots were distributed in 96-well plates (1 x 10^4 cells per well) and incubated until adhesion (~12 h). The compounds at various concentrations (100−0.048 μM) were placed in the wells in duplicate and incubated for 72 h. The cell viability analysis were done by the MMT reduction method (3-[4,5-dimethyl-thiazol-2-yl]-2,5-diphenyltetrazolium […]), after the incubation period (Mosmann, [1983]). The optical density was determined at 570 nm (CLARIOstar, Labtech BMG) and the 50% cytotoxicity concentrations (CC50) were expressed as the percent viability relative to the control (untreated cells). The selectivity index of the compounds was determined through the ratio of the CC50 of both cytotoxicity results (COS7 and HEPG2 cells) and EC50 3D7, separately. Experiments were performed at least three times.

[3] = Cytotoxicity assay (MTT reduction), HEPG2 cells; format: cell-based, human; conditions: human, HEPG2 cells (human hepatoma); HEPG2 cells, 72 h, mean ± SD
Method: as §3

[4] = test system: P. falciparum Dd2 (multi-drug-resistant) strain, asexual blood stage; assay: Plasmodium growth inhibition by SYBR Green I, Dd2 strain; format: cell-based; conditions: read-out: EC50 Dd2
Method: as §1, §2

COS7 cells = assay: Cytotoxicity assay (MTT reduction), COS7 cells; format: cell-based, monkey; conditions: for SI* (selectivity index between CC50 COS7 and EC50 3D7 strain): CC50 COS7 / EC50 3D7; for selectivity indices: mammalian cells vs 3D7 (abstract)
Method: as §3

[5] = Cytotoxicity assay (MTT reduction), COS7 cells; format: cell-based, monkey; conditions: monkey, COS7 cells (fibroblast-like, monkey kidney); COS7 cells, 72 h, mean ± SD
Method: as §3

P. falciparum PK6 = test system: P. falciparum PK6; set-up: method as in ref Crowther et al., 2016; National Center for Biotechnology Information, 2016c; conditions: query of shape-based model, ref Crowther et al., 2016, National Center for Biotechnology Information, 2016c; cited from earlier work
P. falciparum CDPK4 = test system: P. falciparum CDPK4; set-up: method as in ref Crowther et al., 2016; National Center for Biotechnology Information, 2016b; conditions: query of shape-based model, ref Crowther et al., 2016, National Center for Biotechnology Information, 2016b; cited from earlier work
[6] = 3D7 strain, 72 h, mean ± SD of three independent assays, read-out: EC50 3D7
[7] = 3D7, both sensitive and multi-drug resistant P. falciparum strains (abstract), read-out: EC50 (antiplasmodial activity)
[8] = 3D7 / DD2, both 3D7 and Dd2 strains, summary bound, read-out: EC50 (3D7 and Dd2 strains)
[9] = Dd2 strain, 72 h, mean ± SD of three independent assays

Compound | EC50 [1, 6] [µM] | inhibition at 10 µM [2] [%] | SI** (selectivity index between CC50 HEPG2 and EC50 3D7 strain) (HEPG2 cells) | CC50 at 72 h [3] [µM] | EC50 [4, 9] [µM] | SI* (selectivity index between CC50 COS7 and EC50 3D7 strain) (COS7 cells) | CC50 at 72 h [5] [µM] | other results
O=C(NCCCN1CCCCC1)c1ccc(Nc2nccc(Nc3ccc(Oc4ccccc4)cc3)n2)cc1 [SID 307076176] | – | – | – | – | – | – | – | IC50 (P. falciparum CDPK1): 0.094 µM
CN1CCN(CCC2CCCCN2Cc2ccnc3ccccc23)CC1 (stereo not drawn) [LabMol-173] | > 5 | 0 | – | – | – | – | – | –
CC(O)c1cccc(Nc2nc(NCc3ccco3)c3ccccc3n2)c1 (stereo not drawn) [LabMol-172] | 0.43 ± 0.08 | 8.59 ± 13 | 23.74 | 10.2 ± 5.53 | 0.48 ± 0.17 | 28.16 | 12.1 ± 1.44 | EC50 [1, 7]: ≤ 0.7 µM; EC50 [1, 8]: < 1 µM; selectivity indices (COS7 cells): > 15 folds
COc1ccc(Nc2nc(C)c(N)c(Nc3ccc(OC)cc3)n2)cc1 [LabMol-170] | 1.14 ± 0.2 | 11.2 ± 19.5 | 4.76 | 5.43 ± 2.39 | 2.02 ± 0.36 | 6.66 | 7.59 ± 4.09 | –
COc1ccc(Nc2nc(Nc3ccc([N+](=O)[O-])cc3)nc(OC)n2)cc1 [LabMol-169] | 8.77 ± 2.2 | 8.58 ± 7.62 | 2.27 | 19.9 ± 2.26 | 3.4 ± 1.68 | 5.09 | 44.6 ± 3.73 | –
c1ccc2c(NCC3CCCO3)nc(Nc3ccc4c(c3)OCO4)nc2c1 (stereo not drawn) [LabMol-181] | 0.39 ± 0.06 | 51.8 ± 23.2 | 15.72 | 6.13 ± 2.05 | 0.4 ± 0.1 | 46.90 | 18.3 ± 1.92 | EC50 [1, 7]: ≤ 0.7 µM; EC50 [1, 8]: < 1 µM; selectivity indices (COS7 cells): > 15 folds
CC(Nc1nc(N2CCNCC2)nc2ccccc12)c1ccccc1 (stereo not drawn) [LabMol-176] | 1.15 ± 0.26 | 20.5 ± 19.4 | 4.90 | 5.63 ± 1.51 | 1.71 ± 0.4 | 30.33 | 34.9 ± 4.06 | –
Cc1cc(NCCCN2CCN(C)CC2)nc(-c2ccccc2O)n1 [LabMol-174] | > 5 | 21.4 ± 36.7 | – | – | – | – | – | –
O=C(NCCO)c1cccc(Nc2nc(-c3ccccc3)c3cc(Cl)ccc3n2)c1 [LabMol-175] | > 5 | 12.9 ± 22.3 | – | – | – | – | – | –
CNC(=O)c1ccccc1Nc1nc(Nc2ccc(N3CCOCC3)cc2)ncc1Cl [SID 307071719] | – | – | – | – | – | – | – | IC50 (P. falciparum PK6): 0.042 µM
CCn1c(-c2nonc2N)nc2c(-c3cccc(NC(=O)Nc4cccc(C(F)(F)F)c4)c3)ncc(OCCCN)c21 [SID 307073749] | – | – | – | – | – | – | – | IC50 (P. falciparum CDPK1): 0.015 µM
Cc1[nH]c(/C=C2\C(=O)Nc3ccc(S(=O)(=O)Cc4c(Cl)cccc4Cl)cc32)c(C)c1C(=O)N1CCC[C@@H]1CN1CCCC1 [SID 307068815] | – | – | – | – | – | – | – | IC50 (P. falciparum CDPK4): 0.021 µM
CCN(CC)CCCC(C)Nc1ccnc2cc(Cl)ccc12 (stereo not drawn) [Chloroquine, reference compound] | – | – | – | – | – | – | – | EC50 ([1]; 3D7, 72 h, read-out: EC50 3D7): 0.02 ± 0.01 µM; EC50 ([4]; DD2, 72 h): 0.15 ± 0.04 µM
CC(C)(CN)c1nc(-c2ccc(Cl)c(O)c2)c(-c2ccnc(N)n2)[nH]1 [SID 307078537] | – | – | – | – | – | – | – | IC50 (P. falciparum CDPK1): 0.007 µM
Cc1ccc(-c2nc(NCc3cnc(C)cn3)ncc2-c2ccc(N)nc2)cc1 [LabMol-177] | > 5 | 8.76 ± 15.2 | – | – | – | – | – | –
CC(O)c1cccc(Nc2nc(NCCO)c3ccccc3n2)c1 (stereo not drawn) [LabMol-171] | 0.35 ± 0.08 | 70 ± 22.2 | 55.17 | 19.3 ± 3.69 | 0.7 ± 0.41 | 138.26 | 48.4 ± 14 | EC50 [1, 7]: ≤ 0.7 µM; EC50 [1, 8]: < 1 µM; selectivity indices (COS7 cells): > 15 folds
